Assay results from ChEMBL document CHEMBL4483862, “Open-source discovery of chemical leads for next-generation chemoprotective antimalarials” (2018).

Tested on: Plasmodium berghei
Experiment: Luciferase/luciferin-expressing antifolate-resistant parasites were used to infect a culture of HepG2 cells that were pre-incubated with compounds. Infected hepatocytes emit light due to the luciferase reaction. Assay results are presented as the percent inhibition of light emission compared to control. […]
Assay type: functional
Conditions: sporozoite; for IC90: read-out: LUCIFERASE INFECTION ASSAY - IC90

SMILES	IC90 [µM]	further results
CNC(=O)c1nnsc1[S+]([O-])c1ccc(Cl)cc1 (configuration not stated)	> 10.9	IC50 (FFLUC_HILL_SLOPE 1.33, FFLUC_R_SQUARED 0.248, HEPG2TOX_HILL_SLOPE 10.3, HEPG2TOX_R_SQUARED 0.738, read-out: LUCIFERASE INFECTION ASSAY - IC50): > 10.9 µM
Cc1cc(-c2ccccc2)[s+]c(-c2ccccc2)c1	> 10	IC50 (FFLUC_HILL_SLOPE 1.28, FFLUC_R_SQUARED 0.852, PBLUC_HILL_SLOPE 0.191, PBLUC_R_SQUARED 0.106, read-out: LUCIFERASE INFECTION ASSAY - IC50): > 10 µM
CSc1sc(C(=O)NNC(=O)Nc2ccccc2)c2c1C=CCC2	> 9.18	IC50 (FFLUC_HILL_SLOPE 1.34, FFLUC_R_SQUARED 0.714, read-out: LUCIFERASE INFECTION ASSAY - IC50): > 9.18 µM
COc1cc(/C=C(\C#N)c2nc3ccccc3[nH]2)ccc1OC(=O)c1cc2c(C)nn(-c3ccccc3)c2s1	> 10	IC50 (FFLUC_HILL_SLOPE 1.24, FFLUC_R_SQUARED 0.777, PBLUC_HILL_SLOPE 2.61, PBLUC_R_SQUARED 0.768, read-out: LUCIFERASE INFECTION ASSAY - IC50): 5.91 µM
Cc1c(-c2ccccc2)nc2ccccc2c1C(=O)Nc1ccc2c(c1)OCCO2	6.7	IC50 (FFLUC_HILL_SLOPE 1.33, FFLUC_R_SQUARED 0.515, PBLUC_HILL_SLOPE 1.27, PBLUC_R_SQUARED 0.667, read-out: LUCIFERASE INFECTION ASSAY - IC50): 1.19 µM
CC(C)(C)c1ccc(CN2C(=O)CS/C2=C\C(=O)c2ccc(C(C)(C)C)cc2)cc1	> 10	IC50 (FFLUC_HILL_SLOPE 1.26, FFLUC_R_SQUARED 0.691, PBLUC_HILL_SLOPE 1.17, PBLUC_R_SQUARED 0.615, read-out: LUCIFERASE INFECTION ASSAY - IC50): 1.59 µM
Cc1onc(-c2c(Cl)cccc2Cl)c1-c1csc(-c2ccccc2Cl)n1	6.63	IC50 (FFLUC_HILL_SLOPE 1.25, FFLUC_R_SQUARED 0.188, HEPG2TOX_HILL_SLOPE 2.28, HEPG2TOX_R_SQUARED 0.946, PBLUC_HILL_SLOPE 2.98, PBLUC_R_SQUARED 0.455, read-out: LUCIFERASE INFECTION ASSAY - IC50): 3.17 µM
Cc1ccc(-c2nc(CSc3nc(C)c(C)n3CC3CCCO3)co2)c(C)c1 (configuration not stated)	> 10	IC50 (FFLUC_HILL_SLOPE 1.24, FFLUC_R_SQUARED 0.0904, HEPG2TOX_HILL_SLOPE 3.11, HEPG2TOX_R_SQUARED 0.82, read-out: LUCIFERASE INFECTION ASSAY - IC50): > 10 µM
Cc1cc(C2=NNC(=NC3CC3)SC2)c(C)n1-c1ccccn1	1.61	IC50 (FFLUC_HILL_SLOPE 1.22, FFLUC_R_SQUARED 0.875, PBLUC_HILL_SLOPE 1.09, PBLUC_R_SQUARED 0.799, read-out: LUCIFERASE INFECTION ASSAY - IC50): 0.213 µM
FC(F)(F)c1cc(N=C(C/C=N/c2cc(C(F)(F)F)cc(C(F)(F)F)c2)c2ccc(Cl)cc2)cc(C(F)(F)F)c1	0.673	IC50 (FFLUC_HILL_SLOPE 1.3, FFLUC_R_SQUARED 0.132, PBLUC_HILL_SLOPE 15.7, PBLUC_R_SQUARED 0.5, read-out: LUCIFERASE INFECTION ASSAY - IC50): 0.585 µM
N#CC(C#N)=C1C=C(c2ccc(O)cc2)Oc2ccccc21	> 10	IC50 (FFLUC_HILL_SLOPE 1.23, FFLUC_R_SQUARED 0.408, read-out: LUCIFERASE INFECTION ASSAY - IC50): > 10 µM
CCN(Cc1ccc2c(c1)OCO2)C(=O)c1oc2c(F)cccc2c1C	> 10	IC50 (FFLUC_HILL_SLOPE 1.31, FFLUC_R_SQUARED 0.0559, read-out: LUCIFERASE INFECTION ASSAY - IC50): > 10 µM
CCOC(=O)c1c(C)noc1/C(C)=N/OC(=O)Nc1cccc(C(F)(F)F)c1	3.98	IC50 (FFLUC_HILL_SLOPE 1.36, FFLUC_R_SQUARED 0.14, PBLUC_HILL_SLOPE 8.59, PBLUC_R_SQUARED 0.59, read-out: LUCIFERASE INFECTION ASSAY - IC50): 3.08 µM
Nc1c(C(=O)Nc2cccc(Cl)c2)sc2nc3c(c(-c4cccnc4)c12)CCC3	> 7.84	IC50 (FFLUC_HILL_SLOPE 1.24, FFLUC_R_SQUARED 0.605, PBLUC_HILL_SLOPE 2.61, PBLUC_R_SQUARED 0.023, read-out: LUCIFERASE INFECTION ASSAY - IC50): > 7.84 µM
O=C(OCCSc1ccc([N+](=O)[O-])c2nonc12)c1ccccc1	> 9.56	IC50 (FFLUC_HILL_SLOPE 1.36, FFLUC_R_SQUARED 0.568, HEPG2TOX_HILL_SLOPE 2.89, HEPG2TOX_R_SQUARED 0.849, PBLUC_HILL_SLOPE 0.85, PBLUC_R_SQUARED 0.48, read-out: LUCIFERASE INFECTION ASSAY - IC50): 5.19 µM
Cc1sc(-n2cccc2)c(C(=O)Nc2cccc(-c3nn[nH]n3)c2)c1C	> 10	IC50 (FFLUC_HILL_SLOPE 1.33, FFLUC_R_SQUARED 0.778, read-out: LUCIFERASE INFECTION ASSAY - IC50): > 10 µM

SMILES	IC90 [µM]	further results
COc1ccc(S(=O)(=O)OCCSc2ccc([N+](=O)[O-])c3nonc23)cc1	> 8.02	IC50 (FFLUC_HILL_SLOPE 1.23, FFLUC_R_SQUARED 0.562, read-out: LUCIFERASE INFECTION ASSAY - IC50): > 8.02 µM
Nc1ccc(-c2cnn3c(N4CCOCC4)ccnc23)cc1	8.75	IC50 (FFLUC_HILL_SLOPE 1.28, FFLUC_R_SQUARED 0.893, PBLUC_HILL_SLOPE 0.747, PBLUC_R_SQUARED 0.679, read-out: LUCIFERASE INFECTION ASSAY - IC50): 0.462 µM
Nc1nccnc1C(=O)Nc1ccc(C23CC4CC(CC(C4)C2)C3)cc1	9.45	IC50 (FFLUC_HILL_SLOPE 1.35, FFLUC_R_SQUARED 0.9, PBLUC_HILL_SLOPE 1.78, PBLUC_R_SQUARED 0.606, read-out: LUCIFERASE INFECTION ASSAY - IC50): 2.75 µM
Cc1ccc(C)c(-n2c(SCCOc3ccccc3C)nnc2-c2ccccc2Cl)c1	> 10	IC50 (FFLUC_HILL_SLOPE 1.3, FFLUC_R_SQUARED 0.027, HEPG2TOX_HILL_SLOPE 7.63, HEPG2TOX_R_SQUARED 0.817, read-out: LUCIFERASE INFECTION ASSAY - IC50): > 10 µM
COC(=O)Cc1[nH]n(-c2nc3ccccc3s2)c(=O)c1C(C)=NCCO	3.67	IC50 (FFLUC_HILL_SLOPE 1.26, FFLUC_R_SQUARED 0.909, HEPG2TOX_HILL_SLOPE 2.15, HEPG2TOX_R_SQUARED 0.817, PBLUC_HILL_SLOPE 1.27, PBLUC_R_SQUARED 0.77, read-out: LUCIFERASE INFECTION ASSAY - IC50): 0.646 µM
Cc1ccc(NC(=O)c2cnn(C(C)(C)C)c2C)cc1F	6.02	IC50 (FFLUC_HILL_SLOPE 1.31, FFLUC_R_SQUARED 0.708, PBLUC_HILL_SLOPE 0.501, PBLUC_R_SQUARED 0.734, read-out: LUCIFERASE INFECTION ASSAY - IC50): 0.0753 µM
Cc1ccc(C(=O)Nc2nc3ccccc3[nH]2)cc1F	4.06	IC50 (FFLUC_HILL_SLOPE 1.36, FFLUC_R_SQUARED 0.795, PBLUC_HILL_SLOPE 11.8, PBLUC_R_SQUARED 0.45, read-out: LUCIFERASE INFECTION ASSAY - IC50): 3.37 µM
CCCc1ccc(C(=O)C(C)Sc2nnc(Cc3cccc4ccccc34)n2N)cc1 (configuration not stated)	> 10	IC50 (FFLUC_HILL_SLOPE 1.29, FFLUC_R_SQUARED 0.471, read-out: LUCIFERASE INFECTION ASSAY - IC50): > 10 µM
CC(C)c1ccc(C(=O)Nc2ccccn2)cc1	> 13.7	IC50 (FFLUC_HILL_SLOPE 1.25, FFLUC_R_SQUARED 0.914, PBLUC_HILL_SLOPE 0.406, PBLUC_R_SQUARED 0.482, read-out: LUCIFERASE INFECTION ASSAY - IC50): 1.63 µM
O=c1c(Cl)c(Cl)cnn1-c1ccc(S(=O)(=O)Oc2ccccc2F)cc1	8.08	IC50 (FFLUC_HILL_SLOPE 1.28, FFLUC_R_SQUARED 0.46, HEPG2TOX_HILL_SLOPE 12.5, HEPG2TOX_R_SQUARED 0.895, PBLUC_HILL_SLOPE 2.73, PBLUC_R_SQUARED 0.311, read-out: LUCIFERASE INFECTION ASSAY - IC50): 3.61 µM
COc1cc(Cl)c(C)cc1-n1c(Sc2ccc([N+](=O)[O-])c(C(F)(F)F)c2)nc2ccccc2c1=O	> 10	IC50 (FFLUC_HILL_SLOPE 1.25, FFLUC_R_SQUARED 0.54, HEPG2TOX_HILL_SLOPE 0.668, HEPG2TOX_R_SQUARED 0.6, PBLUC_HILL_SLOPE 3.18, PBLUC_R_SQUARED 0.355, read-out: LUCIFERASE INFECTION ASSAY - IC50): 6.33 µM
Cn1c(Sc2ncc([N+](=O)[O-])s2)n[nH]c1=O	7.26	IC50 (FFLUC_HILL_SLOPE 1.35, FFLUC_R_SQUARED 0.48, HEPG2TOX_HILL_SLOPE 8.97, HEPG2TOX_R_SQUARED 0.707, PBLUC_HILL_SLOPE 6.36, PBLUC_R_SQUARED 0.781, read-out: LUCIFERASE INFECTION ASSAY - IC50): 5.14 µM
COc1cccc(-c2nccc3n[nH]c(-c4cccc(OC(F)(F)F)c4)c23)c1	> 10	IC50 (FFLUC_HILL_SLOPE 1.32, FFLUC_R_SQUARED 0.557, read-out: LUCIFERASE INFECTION ASSAY - IC50): > 10 µM
OC1(c2ccc(OC(F)F)cc2)CN(c2ccc(Br)cc2)C2=[N+]1c1ccccc1CC2 (configuration not stated)	> 10	IC50 (FFLUC_HILL_SLOPE 1.23, FFLUC_R_SQUARED 0.743, PBLUC_HILL_SLOPE 152, PBLUC_R_SQUARED 0.276, read-out: LUCIFERASE INFECTION ASSAY - IC50): 9.94 µM
Cc1c(C)c(C)c(C(=O)C2CCN(C(=O)c3ccc([N+](=O)[O-])o3)CC2)c(C)c1C	> 8.28	IC50 (FFLUC_HILL_SLOPE 1.26, FFLUC_R_SQUARED 0.398, read-out: LUCIFERASE INFECTION ASSAY - IC50): > 8.28 µM
